Laboratory results taken from ChEMBL document CHEMBL5365435, “Design, Synthesis, and Biological Evaluation of Thioglucoside Analogues of Gliflozin as Potent New Gliflozin Drugs” (J Med Chem, 2023).
Activity calls are given as the source filed them. The rule behind the calls is not given here.

How the values were obtained:
[1] = molecular target: T1, Sodium/glucose cotransporter 2 (Homo sapiens, UniProt P31639); experiment: Inhibition of SGLT2 (unknown origin)
T1 sequence (P31639 whole entry): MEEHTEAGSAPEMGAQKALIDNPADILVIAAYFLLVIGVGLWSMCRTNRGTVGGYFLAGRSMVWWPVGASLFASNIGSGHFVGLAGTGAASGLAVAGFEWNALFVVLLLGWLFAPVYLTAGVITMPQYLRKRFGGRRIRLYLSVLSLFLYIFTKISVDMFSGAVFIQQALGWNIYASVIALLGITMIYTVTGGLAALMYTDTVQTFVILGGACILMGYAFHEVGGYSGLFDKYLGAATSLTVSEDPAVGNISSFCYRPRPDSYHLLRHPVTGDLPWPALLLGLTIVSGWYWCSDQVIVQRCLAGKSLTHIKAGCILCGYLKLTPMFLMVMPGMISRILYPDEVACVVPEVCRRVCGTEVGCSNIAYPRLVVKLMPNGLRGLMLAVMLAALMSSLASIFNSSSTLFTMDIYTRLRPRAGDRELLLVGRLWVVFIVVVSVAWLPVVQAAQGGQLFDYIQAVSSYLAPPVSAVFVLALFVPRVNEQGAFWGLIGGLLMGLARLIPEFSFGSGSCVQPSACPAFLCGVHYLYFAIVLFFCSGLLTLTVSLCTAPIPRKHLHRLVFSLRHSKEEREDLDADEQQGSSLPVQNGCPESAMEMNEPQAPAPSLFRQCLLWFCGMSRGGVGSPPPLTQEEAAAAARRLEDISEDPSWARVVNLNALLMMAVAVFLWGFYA

[2] = molecular target: T2, Sodium/glucose cotransporter 2 (Homo sapiens) (UniProt P31639); experiment: Inhibition of SGLT2 in HEK293 cells assessed as 2-NBDG uptake at 100 uM preincubated for 1 hr followed by 2-NBDG addition and measured after 1 hr relative to control; assay type: cell-based; conditions: time 2.0 hrs
T2 sequence (whole entry): T1 sequence (P31639 whole entry)

HEK293 = experiment: Cytotoxicity against HEK293 cells at 100 uM incubated for 24 hrs by MTT assay; assay type: toxicity, cell-based; conditions: human, hek293, 24 h
Mus musculus [3] = experiment: Antidiabetic activity against C57BL/6J mouse assessed as decrease in renal glucose level at 3 mg/kg, po measured upto 8 hrs by glucometer analysis; assay type: functional, organism-based
Mus musculus [4] = experiment: Antidiabetic activity against C57BL/6J mouse assessed as decrease in blood glucose level at 3 mg/kg, po measured upto 8 hrs by glucometer analysis; assay type: functional, organism-based
[5] = Half life in mouse at 3 mg/kg, po by LC analysis; assay type: ADME, organism-based; conditions: in vivo
[6] = Tmax in mouse at 3 mg/kg, po by LC analysis; assay type: ADME, organism-based; conditions: in vivo
[7] = AUCinfinity in mouse at 3 mg/kg, po by LC analysis; assay type: ADME, organism-based; set-up: dose 3 mg/kg, route po; conditions: in vivo
[8] = Cmax in mouse at 3 mg/kg, po by LC analysis; assay type: ADME, organism-based; set-up: dose 3 mg/kg, route po; conditions: in vivo
[9] = molecular target: T2, Sodium/glucose cotransporter 2 (Homo sapiens); experiment: Inhibition of SGLT2 (unknown origin) at 100 uM relative to control

Row | Compound | IC50 [1] [nM] | inhibition [2] [%] | Activity (HEK293) | also measured
1 | CCOC(=O)OC[C@H]1O[C@@H](Oc2ccccc2Cc2ccc(OC)cc2)[C@H](O)[C@@H](O)[C@@H]1O [SERGLIFLOZIN ETABONATE] | 7.5 | – | – | –
2 | Cc1ccc(S[C@@H]2O[C@H](CO)[C@@H](O)[C@H](O)[C@H]2O)cc1Cc1ccc(-c2ccc(F)cc2)s1 | – | 54 | Non-Toxic | –
3 | Cc1ccc([C@@H]2O[C@H](CO)[C@@H](O)[C@H](O)[C@H]2O)cc1Cc1ccc(-c2ccc(F)cc2)s1 [CANAGLIFLOZIN ANHYDROUS] | 2.4 | > 90 | – | –
4 | OC[C@H]1O[C@@H](c2ccc(Cl)c(Cc3ccc(O[C@H]4CCOC4)cc3)c2)[C@H](O)[C@@H](O)[C@@H]1O | – | – | – | Activity (Mus musculus [3]): Active; Activity (Mus musculus [4]): Active
5 | COc1ccc(Cc2ccccc2O[C@@H]2O[C@H](CO)[C@@H](O)[C@H](O)[C@H]2O)cc1 [SERGLIFLOZIN A] | 7.5 | – | – | –
6 | Cc1cc(O)c(C(=O)CCc2ccc3occc3c2)c(O[C@@H]2O[C@H](CO)[C@@H](O)[C@H](O)[C@H]2O)c1 | 4.4 | – | – | –

More lines, main results first:

Row | IC50 [1] [nM] | inhibition [2] [%] | Compound | Activity (HEK293) | also measured
7 | 5.9 | > 90 | COc1ccc(Cc2ccccc2S[C@@H]2O[C@H](CO)[C@@H](O)[C@H](O)[C@H]2O)cc1 | Non-Toxic | –
8 | 2.6 | > 90 | CCOc1ccc(Cc2c(Cl)cccc2S[C@@H]2O[C@H](CO)[C@@H](O)[C@H](O)[C@H]2O)cc1 | Non-Toxic | –
9 | – | 57 | CCOc1ccc(Cc2cc(S[C@@H]3O[C@H](CO)[C@@H](O)[C@H](O)[C@H]3O)ccc2Cl)cc1 | Non-Toxic | –
10 | 2 | > 90 | OC[C@H]1O[C@@H](Sc2cccc(Cl)c2Cc2ccc(O[C@H]3CCOC3)cc2)[C@H](O)[C@@H](O)[C@@H]1O | Non-Toxic | half-life [5]: 220 min; Activity (Mus musculus [3]): Active; Activity (Mus musculus [4]): Active; Tmax [6]: 1 h; AUC(0-inf) [7]: 12800 ng·h/mL; Cmax [8]: 4200 ng/mL
11 | 2.5 | > 90 | Cc1cccc(S[C@@H]2O[C@H](CO)[C@@H](O)[C@H](O)[C@H]2O)c1Cc1ccc(-c2ccc(F)cc2)s1 | Non-Toxic | –
12 | – | 62 | OC[C@H]1O[C@@H](Sc2ccc(Cl)c(Cc3ccc(O[C@H]4CCOC4)cc3)c2)[C@H](O)[C@@H](O)[C@@H]1O | Non-Toxic | inhibition [9]: 62%
